Holding throughout (assay type): cell-based
One experiment deals with Nostoc commune (Nc). As to the kind of experiment: Algal efficacy testing, modified ASTM 5589 (12-well, dry paint film). Conditions: three weeks; for % inhibition: at the Total conc; for Total conc, ppm: total biocide in paint taken as minimum inhibitory concentration. The procedure:
(§1) Samples of white acrylic latex paint free of biocides were prepared in 50 ml aliquots. Each biocide was post added to give the necessary active ingredient concentration in the paint. The total biocides concentrations tested were 750, 1500, 2500 and 5000 ppm. After biocides addition, each sample was hand mixed for a minimum of 30 sec, followed by a 3 min run on the paint shaker (RED DEVIL). Each of the paint samples as well as a control sample (containing no biocide) were used to prepare films on black plastic-vinyl chloride/acetate copolymer panels (LENETA, Mahwah, N.J.) using a 3 mil bird bar applicator. The panels were thoroughly dried for 5 days avoiding direct exposure to sunlight. Square discs (15 mm^2) were cut out from each panel and were used as the substrate for fungal and algal efficacy tests. This sample size allowed for an agar border when the sample disc was placed into the well of the test plate.
(§2) The appropriate media (BOLD'S 3N for Chlorophytes, BG-11 for Cyanobacteria, and PDA for fungi) were used to support microbial growth. The test plates were maintained at room temp (25° C.-26° C.), in a cycled light-dark environment, for 3 weeks for algae. Plates for fungal challenge tests were maintained at 30C for three weeks. At the end of incubation period the samples were scored for percent area covered by visible microbial growth.
(§3) ASTM 5589 is a standard accelerated test method for determining resistance of various coatings (including paints) to algal defacement. To accommodate for high-throughput screening, this method was scaled down from petri plates to 12-well plates. A single coupon was placed with a pair of sterile forceps at the center of the agar plug (on top) with the painted surface facing upwards. Each well was inoculated with 150 μl of organism (1×10^8 cfu/ml) making sure that the whole surface (paint film as well as the agar surrounding it) was evenly covered. The plates were incubated at room temp (25° C.-26° C.) with cyclic exposure to light (OTT-Lite model #OTL4012P, 40 Watt, 26 KLumen) and dark phases, for a period of three weeks. The total area covered was evaluated at the end of each week according to percent area covered in 5% increments. While rating the plates, notations were made for zones of inhibition.
(§4) The SI is calculated based on F. C. Kull et.

The next experiment deals with Oscillatoria sp. (Os). Described as above. The conditions noted are these: three weeks; for % inhibition: at the Total conc; for Total conc, ppm: total biocide in paint taken as minimum inhibitory concentration. As to the method: as §1, §2, §3, §4
For experiment [1], the system named is Chlorella sp. + Chlorella kessleri (Cs + Ck). The experiment is described as above. Conditions: three weeks; for % inhibition: at the Total conc; for Total conc, ppm: total biocide in paint taken as minimum inhibitory concentration. As to the method: as §1, §2, §3, §4
Experiment [2] deals with Trentepohlia aurea + Trentepohlia odorata (Ta + To). Described as above. Conditions: three weeks; for % inhibition: at the Total conc; for Total conc, ppm: total biocide in paint taken as minimum inhibitory concentration. The procedure: as §1, §2, §3, §4
In experiment [3] the test system is Calothrix parientina (Cp). The experiment is described as above. Conditions: three weeks; for % inhibition: at the Total conc; for Total conc, ppm: total biocide in paint taken as minimum inhibitory concentration. As to the method: as §1, §2, §3, §4
In experiment [4] the test system is Cladosporium herbarum (Ch). As to the kind of experiment: Fungal efficacy testing, modified ASTM 5590 (12-well, dry paint film). The conditions noted are these: three weeks; for Total conc, ppm: total biocide in paint taken as minimum inhibitory concentration, 30 C; for % inhibition: at the Total conc. As to the method: as §1, §2
(§5) ASTM 5590 is a standard accelerated test method for determining resistance of various coatings (including paints) to fungal defacement. To accommodate for high-throughput screening, this method was scaled down from petri plates to 12-well plates. To set up the test, an agar plug was placed at the bottom of each well of the sterile 12-well plate. A single coupon was placed with a pair of sterile forceps at the center of the agar plug (on top) with the painted surface facing upwards. Each well was inoculated with 150 μl of organism (1×10^6 cfu/ml) making sure that the whole surface (paint film as well as the agar surrounding it) was evenly covered. The plates were incubated at 30° C. in presence of moisture, for a period of three weeks. The total percent area covered was evaluated and recorded at the end of each week after the 2nd week and recorded in increments of 5%.
as §4

Experiment [5] has as its system Aureobasidium pullulans (Ap). Described as above. Conditions: three weeks; for Total conc, ppm: total biocide in paint taken as minimum inhibitory concentration, 30 C; for % inhibition: at the Total conc. The procedure: as §1, §2, §5, §4
For experiment [6], the system named is Stachybotris chartarum (Sc). Described as above. The conditions noted are these: three weeks; for % inhibition: at the Total conc; for Total conc, ppm: total biocide in paint taken as minimum inhibitory concentration, 30 C. The procedure: as §1, §2, §5, §4
The test system of experiment [7] is Penicillium funiculosum (Pf). Described as above. Conditions: three weeks; for Total conc, ppm: total biocide in paint taken as minimum inhibitory concentration, 30 C; for % inhibition: at the Total conc. The procedure:
as §1, §2, §5, §4

Experiment [8] concerns Alternaria alternata (Aa). The description is as above. The conditions noted are these: three weeks; for Total conc, ppm: total biocide in paint taken as minimum inhibitory concentration, 30 C; for % inhibition: at the Total conc. As to the method:
as §1, §2, §5, §4

Several values for one entry are separate records, joined by “and”; a condition that tells them apart may be missing. Identical values can stand only once.

Usually % inhibition stands for the change of the read-out against control, counted positive when it falls. For the compound `CN(C)C(=O)Nc1cccc(C(F)(F)F)c1` [Fluometuron, 1,1-dimethyl-3-(α,α,α-trifluoro-m-tolyl)urea], the “% inhibition” value in the experiment with Nostoc commune (Nc) is 100% and 90% and 85%; with Oscillatoria sp. (Os) it was 95% and 62.5% and 82.5%; in [1], 100% and 90.00% and 80%; in experiment [2], 95% and 82.5% and 62.5%; in [3] it was 100% and 95% and 90%; in experiment [6] it was 65%. For the same compound, the “Total conc, ppm” value with Nostoc commune (Nc) is 750 ppm; in [2], 750 ppm and 1500 ppm; in experiment [3] it was 750 ppm; in experiment [4], 2500 ppm and 5000 ppm; in [5], 2500 ppm and 5000 ppm; in [6], 5000 ppm. For the same compound, the “Total conc, ppm” value was 2500 ppm and 5000 ppm in experiment [7]; 2500 ppm and 5000 ppm in experiment [8].
Consider `CCCCCCCCn1sc(Cl)c(Cl)c1=O` [DCOIT, 4,5-dichloro-2-n-octyl-4-isothiazolin-3-one], for which the “% inhibition” value in the experiment with Nostoc commune (Nc) came to 82.5%; in the experiment on Oscillatoria sp. (Os), 80%; in experiment [1], 70%; in experiment [2] it was 72.5%; in experiment [3], 75%; in experiment [4], 67.5%. Besides, the “% inhibition” value came out at 77.5% in [5], 32.5% in experiment [6], 82.5% in [7] and 87.5% in [8]. In addition, the “Total conc, ppm” value in the experiment with Nostoc commune (Nc) was 750 ppm; in the experiment on Oscillatoria sp. (Os) it was 750 ppm; in experiment [1], 1500 ppm; in experiment [2], 1500 ppm; in [3], 1500 ppm; in experiment [4] it was 5000 ppm. For the same compound, the “Total conc, ppm” value in experiment [5] is recorded as 2500 ppm; in experiment [6] it was 5000 ppm; in [7] it was 2500 ppm; in experiment [8], 5000 ppm.
As for `Cc1ccc(S(=O)(=O)C(I)I)cc1` [DIMTS, diiodomethyl-p-tolylsulfone], the “% inhibition” value in the experiment with Nostoc commune (Nc) was found to be 80%; in the experiment with Oscillatoria sp. (Os) it was 80%; in experiment [1] it was 70%; in [2], 62.5%; in experiment [3], 85%; in [4] it was 72.5%. Further, the “% inhibition” value is 77.5% in experiment [5], 50% in experiment [6], 82.5% in experiment [7] and 77.5% in experiment [8]. The “Total conc, ppm” value in the experiment on Nostoc commune (Nc) is 5000 ppm; with Oscillatoria sp. (Os) it was 1500 ppm; in experiment [1] it was 2500 ppm; in experiment [2] it was 2500 ppm; in [3], 1500 ppm; in [4], 750 ppm. Further, the “Total conc, ppm” value turned out to be 2500 ppm in experiment [5], 750 ppm in experiment [6], 1500 ppm in experiment [7] and 2500 ppm in experiment [8].

(Values after US8592405B2, “Synergistic antimicrobial composition” (Dow Global Technologies LLC, priority 2009, dated 2013).)
